Data taken from patent US10813981B2, “Saposin B binds the lipofuscin bisretinoid A2E and prevents its enzymatic and photo degradation” (Syracuse University, priority 2017, dated 2020).

Key:
[1] = molecular target: T1, retinoid isomerohydrolase (RPE65 isomerohydrolase) (Homo sapiens, UniProt Q16518); settings: non-palmitoylated, soluble, cytoplasmic RPE65; read-out: KD, direct binding to RPE65; cited from earlier work
T1 sequence (Q16518 1-533): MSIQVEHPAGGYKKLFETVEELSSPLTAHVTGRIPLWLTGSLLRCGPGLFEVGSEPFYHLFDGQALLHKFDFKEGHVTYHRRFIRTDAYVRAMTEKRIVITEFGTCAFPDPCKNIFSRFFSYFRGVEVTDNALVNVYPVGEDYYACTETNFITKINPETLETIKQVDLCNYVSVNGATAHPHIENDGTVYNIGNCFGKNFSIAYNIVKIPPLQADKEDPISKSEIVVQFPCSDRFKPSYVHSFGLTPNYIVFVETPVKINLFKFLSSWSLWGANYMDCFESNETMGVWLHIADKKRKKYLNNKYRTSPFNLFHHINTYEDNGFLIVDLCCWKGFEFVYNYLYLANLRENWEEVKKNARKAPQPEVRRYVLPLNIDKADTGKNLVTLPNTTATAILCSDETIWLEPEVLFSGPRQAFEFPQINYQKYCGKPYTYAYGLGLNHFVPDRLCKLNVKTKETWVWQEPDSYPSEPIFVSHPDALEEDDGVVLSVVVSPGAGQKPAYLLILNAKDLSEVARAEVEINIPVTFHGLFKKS

HRP = molecular target: T2, HRP (Armoracia rusticana, UniProt P00433); experiment: Formation of verdoheme (P-670) from HRP Compound III, absorbance at 670 nm; assay type: biochemical; settings: 12 μM A2E, alone or pre-complexed with SapB; 10 μM HRP, 100 μM H2O2
T2 sequence (P00433 31-338): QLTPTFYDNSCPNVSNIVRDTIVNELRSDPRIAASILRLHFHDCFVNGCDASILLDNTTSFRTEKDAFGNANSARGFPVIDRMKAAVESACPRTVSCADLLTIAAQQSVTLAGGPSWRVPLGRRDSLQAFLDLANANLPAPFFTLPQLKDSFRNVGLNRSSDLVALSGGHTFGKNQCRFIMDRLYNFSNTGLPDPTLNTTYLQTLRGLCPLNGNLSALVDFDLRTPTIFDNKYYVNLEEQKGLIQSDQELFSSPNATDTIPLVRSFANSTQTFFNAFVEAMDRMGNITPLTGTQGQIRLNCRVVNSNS
Method: Here, and in light of the kinetic results of FIG. 4, we followed the absorbance change at 670 nm to test the hypothesis of whether A2E may be a suitable substrate for the HRP/H2O2 system.
The experiments were then repeated in the presence of A2E and SapB to examine their effect on P-670 formation.
Conventional ultraviolet visible spectroscopy was performed on a Varian Cary 50 Bio spectrophotometer from Agilent Technologies. The stock solutions of various reagents were prepared as follow: HRP in DI water, A2E in DMSO, SapB in 50 mM phosphate buffer, pH 5.5, CoQ10 in THF (tetrahydrofurane) and 3% H2O2 solution diluted in DI water from an initial stock at 30%. The 340 nm kinetic experiments were monitored every 5 minutes for a total of 400 min following the sequential addition of all reagents as indicated in FIG. 4. The HRP solution of FIG. 5 was prepared in 20 mM phosphate buffer, 1% tween, pH 5.5, 25° C. All concentrations given in the figure caption are final concentrations following mixing of the reagents. The spectrophotometric data were further analyzed with OriginLab software version 8.

SapB = molecular target: T3, SapB (Homo sapiens, UniProt P07602); experiment: Fluorescence quenching titration of SapB with ligand (double logarithmic Stern-Volmer analysis); assay type: binding
T3 construct: made in house; host or cells: E. coli
T3 sequence (P07602 195-273 limits assumed): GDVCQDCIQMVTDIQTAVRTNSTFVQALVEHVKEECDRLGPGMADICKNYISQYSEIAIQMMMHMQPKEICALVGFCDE
Method: A2E and SapB were prepared and purified according to literature reports. To determine the A2E/protein binding stoichiometry, a fluorescence titration was carried out by incrementally adding small amounts of A2E to a solution of SapB (FIG. 2). […] A double logarithmic plot of
Fluorescence quenching measurements were performed on a Varian Cary Eclipse fluorimeter equipped with a QNW Peltier temperature controller. The experiments were conducted at 25.00±0.01° C. in 50 mM phosphate buffer, pH 5.50 or 7.40 using 278 nm excitation wavelength for sapB emission spectra at 325 nm (FIG. 2) or 444 nm excitation for A2E emission at 602 nm (FIG. 3) with excitation and emission monochromators bandwidth of 5 nm each. The fluorescence quenching data were analyzed using OriginLab software version 8.
The interaction of SapB (prepared as described above) with a variety of ligands was followed by monitoring the quenching of the fluorescence intensities of the protein's tyrosine residues upon binding (FIG. 12 Panels a-f).
For each ligand tested 40 μM SapB in 50 mM phosphate buffer at pH 5.5 was titrated with ligand and quenching was monitored at the fluorescence maxima at 330 nm. […] All of the fluorescence data were analyzed by a double logarithmic Stern-Volmer plot, shown for all ligands, using the emission maxima to determine binding affinity, presented in Table 3, and using the following equation
Materials and Methods—Saposin B (SapB) was prepared and purified as described above. Briefly, SapB solutions in this study were prepared in 50 mM phosphate buffer, pH 5.5. […] Ligand solutions were prepared in 100% dimethylformamide (DMF) to a concentration of 2 mM, with the exception of hydoxychloroquine (HCQ), which was prepared in 50 mM phosphate buffer, pH 5.5. […] 4.2. Fluorescence Spectroscopy. Fluorescence quenching measurements were performed on a Varian Cary Eclipse fluorimeter equipped with a QNW Peltier temperature controller. The binding experiments were conducted at 25.00±0.01° C. in 50 mM phosphate buffer, pH 5.5, using 278 nm excitation wavelength for SapB emission spectra at 330 nm (FIG. 1a-f) with excitation and emission monochromators bandwidth of 5 nm each. Temperature sensitive binding experiments were performed between 20.00±0.01 and 40.00±0.01° C. using 278 nm excitation wavelength for SapB emission spectra at 331 nm, with excitation and emission monochromators bandwidth of 5 nm each. The fluorescence quenching data were analyzed using OriginLab software version 8.

amount of verdoheme (P-670) formation (HRP): significant reduction
binding stoichiometry from double logarithmic plot (SapB): ~1 A2E per SapB dimer
LogKA of binding by SapB (SapB; 40 μM SapB, 50 mM phosphate buffer pH 5.5, average of three runs): 4.680
binding affinity (KA), A2E to SapB (SapB; double logarithmic plot, 50 mM phosphate buffer pH 5.5, 25° C.): ~4e+06 M⁻¹
Kd (SapB; read-out: KD, SapB binds A2E): 25 µM
binding stoichiometry, discontinuity of fluorescence quenching at 308 nm (SapB; titration of SapB with A2E): ~0.5 A2E/protein
SMILES: CC(C=CC1=C(C)CCCC1(C)C)=CC=CC(C)=Cc1cc(C=CC=C(C)C=CC2=C(C)CCCC2(C)C)cc[n+]1CCO [A2E, N-retinylidene-N-retinylethanolamine]
Kd [1]: 0.25 µM
